# Data published in patent US6753348B2, “BTK inhibitors and methods for their identification and use” (Parker Hughes Institute, priority 1998, dated 2004).
# What was measured:
# [1] = molecular target: T1, JAK3 (Homo sapiens, UniProt P52333); assay: Cell-free tyrosine kinase inhibition assay JAK3; assay type: biochemical
# T1 sequence (P52333 1-1124): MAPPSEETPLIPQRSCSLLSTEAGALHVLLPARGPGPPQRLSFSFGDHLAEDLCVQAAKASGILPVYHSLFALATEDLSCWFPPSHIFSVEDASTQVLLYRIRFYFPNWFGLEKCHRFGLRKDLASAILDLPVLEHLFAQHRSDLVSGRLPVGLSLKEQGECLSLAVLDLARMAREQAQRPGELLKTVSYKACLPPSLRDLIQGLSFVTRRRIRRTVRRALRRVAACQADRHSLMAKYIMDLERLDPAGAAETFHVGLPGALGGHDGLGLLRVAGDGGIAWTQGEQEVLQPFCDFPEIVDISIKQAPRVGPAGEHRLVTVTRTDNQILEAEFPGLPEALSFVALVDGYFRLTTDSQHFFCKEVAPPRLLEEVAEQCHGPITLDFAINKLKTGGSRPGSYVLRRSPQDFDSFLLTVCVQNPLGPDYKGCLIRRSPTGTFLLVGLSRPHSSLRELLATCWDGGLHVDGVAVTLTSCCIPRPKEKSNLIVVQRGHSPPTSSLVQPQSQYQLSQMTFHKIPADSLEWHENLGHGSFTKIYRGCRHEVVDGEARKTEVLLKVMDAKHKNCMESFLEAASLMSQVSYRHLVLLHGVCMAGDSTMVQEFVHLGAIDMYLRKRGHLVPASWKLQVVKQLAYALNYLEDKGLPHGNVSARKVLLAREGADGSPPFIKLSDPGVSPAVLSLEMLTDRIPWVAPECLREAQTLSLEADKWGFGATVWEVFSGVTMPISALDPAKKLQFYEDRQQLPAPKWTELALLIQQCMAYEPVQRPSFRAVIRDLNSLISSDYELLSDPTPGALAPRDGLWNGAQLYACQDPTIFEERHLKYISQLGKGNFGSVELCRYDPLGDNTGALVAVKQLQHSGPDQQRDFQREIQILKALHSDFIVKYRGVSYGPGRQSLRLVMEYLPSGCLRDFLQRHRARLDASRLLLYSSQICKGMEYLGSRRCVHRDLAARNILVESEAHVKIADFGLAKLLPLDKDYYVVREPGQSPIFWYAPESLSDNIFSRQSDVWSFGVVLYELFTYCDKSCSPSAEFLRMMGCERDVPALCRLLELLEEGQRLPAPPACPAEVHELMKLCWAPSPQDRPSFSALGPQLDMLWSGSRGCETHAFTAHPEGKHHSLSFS
# [2] = molecular target: BTK in B18.2 cells (Homo sapiens, UniProt Q06187); assay: Cellular BTK activity, immune complex kinase assay after treatment of cells; assay type: cell-based; conditions: treatment of B18.2 cells
# Text: PIU: Phosphoimager units; DSU, densitometric scanning units; CON, control.
# Polyclonal antibodies to BTK were generated by immunization of rabbits with glutathione S-transferase (GST) fusion proteins (Pharmacia Biotech Inc.) containing the first 150 amino acids of BTK. The monoclonal anti-Fas antibody (F22120) was obtained from the Transduction Laboratories, Inc. (Lexington, Ky.). […] Following electrophoresis, kinase gels were dried onto Whatman 3M filter paper and subjected to phosphoimaging on a Molecular Imager (Bio-Rad, Hercules, Calif.) as well as autoradiography on film. Similarly, all chemiluminescent BTK Western blots were subjected to three dimesional densitometric scanning using the Molecular Imager and Imaging Densitometer using the Molecular Analyst/Macontosh version 2.1 software following the specifications of the manufacturer (Bio-Rad). For each drug concentration, a BTK kinase activity index was determined by comparing the ratios of the kinase activity in phosphorimager units (PIU) and density of the protein bands in densitometric scanning units (DSU) to those of the baseline sample and using the formula: Activity Index=[PIU of kinase band/DSU of BTK protein band]test sample: [PIU of kinase band/DSU of BTK protein band]baseline control sample. […]
# Sequence of BTK in B18.2 cells (Q06187 whole entry): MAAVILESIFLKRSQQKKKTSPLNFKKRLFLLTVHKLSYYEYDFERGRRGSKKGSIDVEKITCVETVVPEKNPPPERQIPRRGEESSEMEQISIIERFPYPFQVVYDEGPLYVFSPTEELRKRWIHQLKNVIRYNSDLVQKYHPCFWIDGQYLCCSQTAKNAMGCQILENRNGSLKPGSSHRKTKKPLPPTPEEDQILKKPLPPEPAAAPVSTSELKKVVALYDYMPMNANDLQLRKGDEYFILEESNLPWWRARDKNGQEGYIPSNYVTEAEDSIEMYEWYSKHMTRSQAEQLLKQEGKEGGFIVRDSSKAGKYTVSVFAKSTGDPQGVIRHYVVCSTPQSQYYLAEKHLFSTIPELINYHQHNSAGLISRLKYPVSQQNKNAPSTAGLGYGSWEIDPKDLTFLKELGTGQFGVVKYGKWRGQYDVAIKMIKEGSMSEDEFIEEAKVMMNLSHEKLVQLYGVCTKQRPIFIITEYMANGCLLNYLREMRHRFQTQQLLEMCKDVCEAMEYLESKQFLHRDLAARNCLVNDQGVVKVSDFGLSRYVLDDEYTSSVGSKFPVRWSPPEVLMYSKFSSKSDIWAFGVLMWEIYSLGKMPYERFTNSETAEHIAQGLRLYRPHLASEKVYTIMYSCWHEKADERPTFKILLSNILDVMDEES
smiles,measurement,setting,value
"C/C(O)=C(\C#N)C(=O)Nc1cc(Br)ccc1Br [LFM-A13, α-Cyano-β-hydroxy-β-methyl-N-(2,5-dibromophenyl)-propenamide]",IC50,[1],> 278 µM
same,effect on enzymatic activity of JAK3,[1]; concentrations as high as 100 μg/ml (~278 μM),did not affect the enzymatic activity
same,cellular BTK activity,[2],dose-dependent inhibition of cellular BTK activity
